According to ChEMBL document CHEMBL1201862, “PubChem BioAssay data set” (2004):
Active and inactive are the calls of the source.

What was measured:
[1] = molecular target: T1, Apoptotic protease-activating factor 1 (Homo sapiens, UniProt O14727); assay type: functional
T1 sequence (O14727 whole entry): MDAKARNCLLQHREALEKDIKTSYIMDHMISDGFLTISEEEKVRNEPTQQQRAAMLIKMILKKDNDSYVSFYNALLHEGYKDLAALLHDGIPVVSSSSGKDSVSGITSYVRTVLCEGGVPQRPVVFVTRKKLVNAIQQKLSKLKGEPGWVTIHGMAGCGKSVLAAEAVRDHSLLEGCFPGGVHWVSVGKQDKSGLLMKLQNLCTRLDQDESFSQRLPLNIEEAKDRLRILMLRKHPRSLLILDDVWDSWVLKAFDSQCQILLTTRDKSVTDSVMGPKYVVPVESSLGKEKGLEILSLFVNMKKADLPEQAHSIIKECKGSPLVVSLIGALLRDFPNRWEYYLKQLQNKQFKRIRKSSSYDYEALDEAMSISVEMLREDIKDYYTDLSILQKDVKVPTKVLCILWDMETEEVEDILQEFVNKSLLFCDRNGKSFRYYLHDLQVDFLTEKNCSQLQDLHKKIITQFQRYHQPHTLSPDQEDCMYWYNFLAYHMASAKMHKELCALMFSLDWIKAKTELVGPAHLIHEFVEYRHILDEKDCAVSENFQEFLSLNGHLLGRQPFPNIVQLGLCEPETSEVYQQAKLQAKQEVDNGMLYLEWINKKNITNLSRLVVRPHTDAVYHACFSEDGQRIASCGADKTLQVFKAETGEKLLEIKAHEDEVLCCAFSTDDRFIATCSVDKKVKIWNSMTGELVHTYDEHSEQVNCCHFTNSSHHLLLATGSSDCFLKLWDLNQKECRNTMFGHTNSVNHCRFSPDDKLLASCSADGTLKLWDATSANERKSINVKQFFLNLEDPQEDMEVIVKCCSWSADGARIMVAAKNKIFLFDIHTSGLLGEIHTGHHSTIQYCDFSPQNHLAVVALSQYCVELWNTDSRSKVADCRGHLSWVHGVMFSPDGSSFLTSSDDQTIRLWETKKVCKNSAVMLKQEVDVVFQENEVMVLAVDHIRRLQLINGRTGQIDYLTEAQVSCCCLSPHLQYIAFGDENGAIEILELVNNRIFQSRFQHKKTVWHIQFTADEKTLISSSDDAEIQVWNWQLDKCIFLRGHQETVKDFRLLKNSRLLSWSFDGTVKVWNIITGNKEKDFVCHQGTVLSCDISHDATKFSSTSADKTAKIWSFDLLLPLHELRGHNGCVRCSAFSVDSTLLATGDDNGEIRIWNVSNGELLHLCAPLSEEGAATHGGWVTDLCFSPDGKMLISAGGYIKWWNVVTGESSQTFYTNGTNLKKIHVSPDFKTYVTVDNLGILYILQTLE

[2] = molecular target: T2, Tyrosyl-DNA phosphodiesterase 2 (Homo sapiens, UniProt O95551); assay: human TDP2 enzyme inhibitors, dose response, biochemical, epi absorbance, IC50 (AID 743297)
T2 sequence (O95551 whole entry): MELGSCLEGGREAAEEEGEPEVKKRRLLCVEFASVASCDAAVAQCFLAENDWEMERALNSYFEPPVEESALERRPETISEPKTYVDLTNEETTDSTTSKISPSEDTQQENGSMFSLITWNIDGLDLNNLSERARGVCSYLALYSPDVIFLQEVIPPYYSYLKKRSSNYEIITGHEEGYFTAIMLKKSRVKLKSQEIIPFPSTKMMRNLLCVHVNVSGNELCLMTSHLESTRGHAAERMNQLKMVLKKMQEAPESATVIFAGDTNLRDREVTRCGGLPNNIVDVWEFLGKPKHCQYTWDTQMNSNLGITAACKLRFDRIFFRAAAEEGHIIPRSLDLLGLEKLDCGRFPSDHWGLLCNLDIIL

[3] = molecular target: Tyrosine-protein kinase SYK (Homo sapiens, UniProt P43405); assay type: functional
[4] = molecular target: Testis-specific serine/threonine-protein kinase 2 (Homo sapiens, UniProt Q96PF2); assay type: functional;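 further: part of the Navigating the Kinome panel, target entry STK22B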
Testis-specific serine/threonine-protein kinase 2, sequence (Q96PF2 whole entry): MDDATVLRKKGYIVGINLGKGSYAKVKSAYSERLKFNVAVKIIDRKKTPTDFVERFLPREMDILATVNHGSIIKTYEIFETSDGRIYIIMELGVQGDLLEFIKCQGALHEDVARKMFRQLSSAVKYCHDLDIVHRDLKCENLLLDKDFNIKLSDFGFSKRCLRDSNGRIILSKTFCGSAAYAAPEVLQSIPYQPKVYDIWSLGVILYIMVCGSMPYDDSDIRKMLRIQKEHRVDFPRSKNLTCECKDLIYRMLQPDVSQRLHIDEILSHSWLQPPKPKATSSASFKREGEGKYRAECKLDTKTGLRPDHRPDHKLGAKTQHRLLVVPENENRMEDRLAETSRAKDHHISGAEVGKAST

[5] = molecular target: Cyclin-dependent kinase 2 (Homo sapiens, UniProt P24941); assay type: functional;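 further: CDK2 measured as one member of a broad kinome profiling panel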
[6] = molecular target: MAP kinase-activated protein kinase 5 (Homo sapiens, UniProt Q8IW41); assay type: functional;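 further: measured as one member of a kinome panel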
[7] = molecular target: Casein kinase I isoform gamma-1 (Homo sapiens, UniProt Q9HCP0); assay type: functional;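 further: measured as the CSNK1G1 member of a kinome profiling panel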
[8] = molecular target: Serine/threonine-protein kinase N2 (Homo sapiens, UniProt Q16513); assay type: functional
[9] = molecular target: Proto-oncogene tyrosine-protein kinase ROS (Homo sapiens, UniProt P08922); assay type: functional;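 further: ROS1 tested as one member of a kinome-wide kinase panel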
[10] = molecular target: Tyrosine-protein kinase Blk (Homo sapiens, UniProt P51451); assay type: functional;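 further: obtained as one member of a kinome-wide kinase assay panel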
[11] = molecular target: Homeodomain-interacting protein kinase 2 (Homo sapiens, UniProt Q9H2X6); assay type: functional;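 further: measured within a kinome-wide kinase profiling panel, HIPK2 being one panel member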
Homeodomain-interacting protein kinase 2, sequence (Q9H2X6 whole entry): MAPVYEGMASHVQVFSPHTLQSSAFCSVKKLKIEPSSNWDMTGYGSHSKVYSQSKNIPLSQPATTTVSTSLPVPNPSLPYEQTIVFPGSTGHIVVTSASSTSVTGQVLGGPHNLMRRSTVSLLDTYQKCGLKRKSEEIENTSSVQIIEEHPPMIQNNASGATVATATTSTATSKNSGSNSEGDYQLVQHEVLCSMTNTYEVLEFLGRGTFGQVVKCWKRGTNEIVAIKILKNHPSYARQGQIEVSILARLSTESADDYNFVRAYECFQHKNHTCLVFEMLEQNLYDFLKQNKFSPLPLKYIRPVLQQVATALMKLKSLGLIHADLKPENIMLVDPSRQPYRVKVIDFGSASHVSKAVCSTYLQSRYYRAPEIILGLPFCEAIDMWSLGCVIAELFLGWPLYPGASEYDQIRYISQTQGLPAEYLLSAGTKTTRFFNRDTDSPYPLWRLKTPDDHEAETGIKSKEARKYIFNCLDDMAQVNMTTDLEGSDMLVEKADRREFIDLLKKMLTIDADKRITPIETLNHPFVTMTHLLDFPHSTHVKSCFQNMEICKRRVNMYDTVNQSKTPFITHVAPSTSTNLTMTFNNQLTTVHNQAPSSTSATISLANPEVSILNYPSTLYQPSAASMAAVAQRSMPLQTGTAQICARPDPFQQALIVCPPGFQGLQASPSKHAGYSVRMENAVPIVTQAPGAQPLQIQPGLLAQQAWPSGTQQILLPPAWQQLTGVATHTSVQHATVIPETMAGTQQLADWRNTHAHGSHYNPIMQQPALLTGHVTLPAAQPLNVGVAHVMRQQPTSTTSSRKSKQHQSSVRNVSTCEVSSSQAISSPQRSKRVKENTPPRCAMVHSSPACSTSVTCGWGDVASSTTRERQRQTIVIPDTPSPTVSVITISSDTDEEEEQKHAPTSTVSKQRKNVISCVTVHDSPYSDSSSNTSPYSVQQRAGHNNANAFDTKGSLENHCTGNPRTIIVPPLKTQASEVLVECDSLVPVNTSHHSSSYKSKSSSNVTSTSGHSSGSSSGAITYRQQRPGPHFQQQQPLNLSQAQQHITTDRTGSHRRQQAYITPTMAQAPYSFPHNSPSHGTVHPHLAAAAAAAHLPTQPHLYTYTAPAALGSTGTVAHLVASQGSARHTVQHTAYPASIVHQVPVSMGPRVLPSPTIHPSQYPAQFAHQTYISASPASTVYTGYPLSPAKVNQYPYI

[12] = molecular target: Mitogen-activated protein kinase 13 (Homo sapiens, UniProt O15264); assay type: functional
Mitogen-activated protein kinase 13, sequence (O15264 whole entry): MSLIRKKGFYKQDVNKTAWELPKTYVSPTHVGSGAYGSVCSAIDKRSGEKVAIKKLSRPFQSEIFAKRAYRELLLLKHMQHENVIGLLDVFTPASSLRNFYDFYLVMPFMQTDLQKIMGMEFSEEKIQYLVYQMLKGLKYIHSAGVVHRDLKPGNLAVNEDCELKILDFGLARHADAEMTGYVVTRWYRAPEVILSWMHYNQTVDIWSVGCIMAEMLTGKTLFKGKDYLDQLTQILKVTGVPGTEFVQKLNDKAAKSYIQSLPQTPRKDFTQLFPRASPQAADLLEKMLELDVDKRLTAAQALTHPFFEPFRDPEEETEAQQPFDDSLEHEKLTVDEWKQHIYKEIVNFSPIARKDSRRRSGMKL

[13] = molecular target: Mitogen-activated protein kinase kinase kinase 20 (Homo sapiens, UniProt Q9NYL2); assay type: functional
[14] = molecular target: Proto-oncogene tyrosine-protein kinase Src (Homo sapiens, UniProt P12931); assay type: functional;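 further: SRC entry within a kinome-wide kinase profiling panel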
[15] = molecular target: Dual specificity tyrosine-phosphorylation-regulated kinase 3 (Homo sapiens, UniProt O43781); assay type: functional;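 further: measured as one member of a broad kinase panel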
[16] = molecular target: Receptor tyrosine-protein kinase erbB-2 (Homo sapiens, UniProt P04626); assay: Navigating the Kinome. Panel member name: ERBB2; assay type: functional
Receptor tyrosine-protein kinase erbB-2, sequence (P04626 whole entry): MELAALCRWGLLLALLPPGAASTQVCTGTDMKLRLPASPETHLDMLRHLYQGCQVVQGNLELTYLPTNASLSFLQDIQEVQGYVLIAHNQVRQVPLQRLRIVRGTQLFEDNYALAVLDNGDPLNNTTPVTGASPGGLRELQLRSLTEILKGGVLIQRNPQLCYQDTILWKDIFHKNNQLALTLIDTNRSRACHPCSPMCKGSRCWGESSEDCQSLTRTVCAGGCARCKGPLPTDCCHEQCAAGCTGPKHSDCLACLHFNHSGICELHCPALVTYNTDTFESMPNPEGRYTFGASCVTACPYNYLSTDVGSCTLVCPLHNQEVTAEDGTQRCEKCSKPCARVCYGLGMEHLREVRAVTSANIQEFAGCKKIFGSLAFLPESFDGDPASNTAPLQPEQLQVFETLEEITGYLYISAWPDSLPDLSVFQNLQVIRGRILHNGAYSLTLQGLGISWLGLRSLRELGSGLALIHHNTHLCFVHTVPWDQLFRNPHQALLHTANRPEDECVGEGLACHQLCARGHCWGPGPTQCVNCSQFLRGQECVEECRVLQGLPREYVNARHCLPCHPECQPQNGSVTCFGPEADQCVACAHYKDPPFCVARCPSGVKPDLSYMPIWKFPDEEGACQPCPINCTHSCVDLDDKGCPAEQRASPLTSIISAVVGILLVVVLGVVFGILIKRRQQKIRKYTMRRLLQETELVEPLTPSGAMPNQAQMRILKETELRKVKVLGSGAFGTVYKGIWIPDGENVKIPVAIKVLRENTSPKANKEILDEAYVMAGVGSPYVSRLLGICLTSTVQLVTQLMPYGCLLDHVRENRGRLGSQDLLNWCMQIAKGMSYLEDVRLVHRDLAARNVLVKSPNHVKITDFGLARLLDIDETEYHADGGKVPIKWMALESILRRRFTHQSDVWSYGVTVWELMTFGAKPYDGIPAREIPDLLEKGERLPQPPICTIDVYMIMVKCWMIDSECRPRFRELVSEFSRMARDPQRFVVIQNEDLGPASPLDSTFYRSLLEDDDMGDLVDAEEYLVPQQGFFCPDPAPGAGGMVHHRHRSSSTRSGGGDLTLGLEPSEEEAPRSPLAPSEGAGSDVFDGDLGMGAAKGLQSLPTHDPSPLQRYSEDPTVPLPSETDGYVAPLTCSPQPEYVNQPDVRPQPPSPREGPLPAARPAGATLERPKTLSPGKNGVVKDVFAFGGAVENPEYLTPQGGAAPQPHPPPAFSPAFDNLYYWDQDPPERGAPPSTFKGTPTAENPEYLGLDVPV

[17] = molecular target: Calcium/calmodulin-dependent protein kinase type II subunit beta (Homo sapiens, UniProt Q13554); assay type: functional
[18] = molecular target: Mitogen-activated protein kinase kinase kinase kinase 5 (Homo sapiens, UniProt Q9Y4K4); assay type: functional;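 further: measured as one member of a kinome-spanning kinase panel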
[19] = molecular target: Receptor tyrosine-protein kinase erbB-4 (Homo sapiens, UniProt Q15303); assay type: functional;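 further: ERBB4 member of a kinome-wide kinase profiling panel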
Receptor tyrosine-protein kinase erbB-4, sequence (Q15303 whole entry): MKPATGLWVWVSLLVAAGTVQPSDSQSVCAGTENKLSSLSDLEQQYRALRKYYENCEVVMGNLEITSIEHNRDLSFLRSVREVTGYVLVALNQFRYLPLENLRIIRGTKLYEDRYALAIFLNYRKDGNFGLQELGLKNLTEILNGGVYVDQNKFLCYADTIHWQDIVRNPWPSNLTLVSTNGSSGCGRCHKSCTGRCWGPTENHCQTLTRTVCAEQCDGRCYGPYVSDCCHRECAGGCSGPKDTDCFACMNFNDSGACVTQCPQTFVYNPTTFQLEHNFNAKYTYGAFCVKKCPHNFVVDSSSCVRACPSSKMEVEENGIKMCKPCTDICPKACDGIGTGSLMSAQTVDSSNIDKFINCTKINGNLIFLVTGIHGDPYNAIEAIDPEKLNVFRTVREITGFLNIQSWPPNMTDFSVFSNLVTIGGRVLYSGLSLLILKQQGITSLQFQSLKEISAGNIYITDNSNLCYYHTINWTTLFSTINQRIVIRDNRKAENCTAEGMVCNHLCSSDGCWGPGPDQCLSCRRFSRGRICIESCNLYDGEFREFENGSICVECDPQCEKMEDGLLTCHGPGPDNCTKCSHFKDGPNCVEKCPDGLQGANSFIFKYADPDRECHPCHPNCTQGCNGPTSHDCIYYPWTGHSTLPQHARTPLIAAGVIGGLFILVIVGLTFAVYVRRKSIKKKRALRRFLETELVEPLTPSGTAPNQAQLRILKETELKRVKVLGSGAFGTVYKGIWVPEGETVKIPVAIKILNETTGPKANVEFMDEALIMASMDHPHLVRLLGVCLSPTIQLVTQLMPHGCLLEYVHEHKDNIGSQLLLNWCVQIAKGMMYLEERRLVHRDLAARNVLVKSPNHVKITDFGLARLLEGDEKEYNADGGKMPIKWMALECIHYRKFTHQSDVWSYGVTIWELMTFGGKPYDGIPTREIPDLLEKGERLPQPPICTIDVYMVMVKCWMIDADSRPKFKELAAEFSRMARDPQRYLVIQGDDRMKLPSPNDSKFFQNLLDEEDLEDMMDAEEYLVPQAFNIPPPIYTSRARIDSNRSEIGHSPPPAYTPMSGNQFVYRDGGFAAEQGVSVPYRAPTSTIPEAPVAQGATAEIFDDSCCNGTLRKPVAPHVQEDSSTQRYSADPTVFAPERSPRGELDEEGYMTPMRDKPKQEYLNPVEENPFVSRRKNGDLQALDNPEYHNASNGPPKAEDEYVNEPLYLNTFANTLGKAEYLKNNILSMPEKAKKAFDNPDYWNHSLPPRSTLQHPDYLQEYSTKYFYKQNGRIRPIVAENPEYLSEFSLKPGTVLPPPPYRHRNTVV

[20] = molecular target: Mitogen-activated protein kinase 12 (Homo sapiens, UniProt P53778); assay type: functional;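 further: measured as one member of a kinome-wide kinase profiling panel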
[21] = molecular target: Lymphokine-activated killer T-cell-originated protein kinase (Homo sapiens, UniProt Q96KB5); assay type: functional;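 further: value comes from a kinase panel screen in which TOPK was one of the panel members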
[22] = molecular target: Protein kinase C theta type (Homo sapiens, UniProt Q04759); assay: Navigating the Kinome. Panel member name: PRKCQ; assay type: functional
[23] = molecular target: Dual specificity mitogen-activated protein kinase kinase 1 (Homo sapiens, UniProt Q02750); assay: Navigating the Kinome. Panel member name: MAP2K1; assay type: functional
Dual specificity mitogen-activated protein kinase kinase 1, sequence (Q02750 whole entry): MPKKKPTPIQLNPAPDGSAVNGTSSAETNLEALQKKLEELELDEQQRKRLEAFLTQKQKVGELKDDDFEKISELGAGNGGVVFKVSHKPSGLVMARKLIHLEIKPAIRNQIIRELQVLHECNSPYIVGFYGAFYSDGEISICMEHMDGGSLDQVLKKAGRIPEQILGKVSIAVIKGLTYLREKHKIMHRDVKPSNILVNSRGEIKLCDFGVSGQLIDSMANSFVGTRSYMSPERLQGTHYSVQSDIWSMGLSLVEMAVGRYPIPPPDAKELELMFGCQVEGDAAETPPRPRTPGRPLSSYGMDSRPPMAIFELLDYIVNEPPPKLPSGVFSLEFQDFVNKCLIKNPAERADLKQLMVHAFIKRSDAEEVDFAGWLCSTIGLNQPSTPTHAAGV

Activin receptor type-1 = Activin receptor type-1 (Homo sapiens, UniProt Q04771); assay: Navigating the Kinome. Panel member name: ACVR1; assay type: functional

## COc1ccc(-n2c(NC(=O)c3ccco3)c(C#N)c3nc4ccccc4nc32)cc1
[1]
  IC50: 12600 nM (active)
[2]
  IC50: > 128000 nM (inactive)

## Cc1n[nH]c2ccc(-c3cncc(OCC(N)Cc4ccc(Cl)c(Cl)c4)c3)cc12 (centres undefined)
[3]
  Ki: > 1580 nM (inactive)
[4]
  Ki: > 1580 nM (inactive)
[5]
  Ki: 25.1 nM (active)
[6]
  Ki: > 1580 nM (inactive)
[7]
  Ki: 126 nM (active)
[8]
  Ki: 20 nM (active)
[9]
  Ki: 631 nM (active)
[10]
  Ki: > 1580 nM (inactive)
[11]
  Ki: 126 nM (active)
[12]
  Ki: 631 nM (active)
[13]
  Ki: 7940 nM (active)
[14]
  Ki: > 2000 nM (inactive)
[15]
  Ki: 10 nM (active)
[16]
  Ki: > 1580 nM (inactive)
[17]
  Ki: 251 nM (active)
[18]
  Ki: 158 nM (active)
[19]
  Ki: > 3980 nM (inactive)
[20]
  Ki: 398 nM (active)
[21]
  Ki: 3980 nM (active)

## [2H]C([2H])([2H])Oc1cccc(C(C)NC(=O)c2sc(-c3ccncc3)nc2C)c1 (centres undefined)
[22]
  Ki: > 2510 nM (inactive)
[23]
  Ki: > 3160 nM (inactive)
Activin receptor type-1
  Ki: > 3980 nM (inactive)
